Assay [1] addresses T1, Prolyl endopeptidase (Homo sapiens, UniProt P48147).
T1 sequence (P48147 whole entry): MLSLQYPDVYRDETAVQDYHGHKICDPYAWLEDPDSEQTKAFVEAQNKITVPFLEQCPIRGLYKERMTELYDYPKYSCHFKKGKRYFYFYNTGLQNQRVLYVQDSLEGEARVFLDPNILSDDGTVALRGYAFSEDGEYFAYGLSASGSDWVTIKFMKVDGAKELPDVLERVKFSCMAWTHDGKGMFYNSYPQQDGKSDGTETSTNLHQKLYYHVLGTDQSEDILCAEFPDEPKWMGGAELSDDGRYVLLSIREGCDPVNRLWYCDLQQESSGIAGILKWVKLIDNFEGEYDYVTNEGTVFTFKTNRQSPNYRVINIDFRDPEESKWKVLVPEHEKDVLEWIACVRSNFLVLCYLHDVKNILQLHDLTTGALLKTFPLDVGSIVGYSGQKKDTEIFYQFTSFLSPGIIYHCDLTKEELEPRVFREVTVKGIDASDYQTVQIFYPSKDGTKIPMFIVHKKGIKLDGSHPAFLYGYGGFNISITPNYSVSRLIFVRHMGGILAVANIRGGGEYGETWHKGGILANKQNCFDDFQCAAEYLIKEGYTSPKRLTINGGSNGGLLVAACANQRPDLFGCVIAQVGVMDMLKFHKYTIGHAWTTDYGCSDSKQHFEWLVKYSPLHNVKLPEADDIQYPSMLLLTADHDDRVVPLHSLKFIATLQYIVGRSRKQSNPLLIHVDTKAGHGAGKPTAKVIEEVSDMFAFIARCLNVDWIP
The assay is described as follows: Inhibition of human recombinant POP pre-incubated for 15 mins before Z-Gly-Pro-AMC substrate addition and further incubated for 1 hr by fluorimetry.

Assay [2] has as its target Chymotrypsinogen A (Bos taurus) (UniProt P00766). Description: Inhibition of bovine alpha-chymotrypsin at 75 uM pre-incubated for 15 mins before Ala-Ala-Phe-AMC substrate addition and further incubated for 1 hr by fluorimetry.
Assay [3] is filed under the species Bos taurus. Description: Inhibition of bovine trypsin at 25 uM pre-incubated for 15 mins before Bz-Arg-AMC-HCl substrate addition and further incubated for 1 hr by fluorimetry.

The source made the active and inactive calls. The calls are words filed in the database; no cut-off is given here.

By IC50 is commonly meant the concentration at which inhibition is half-maximal. As for `CC[C@H](C)[C@@H]1NC(=O)[C@@H]2CCCN2C(=O)[C@H](CC(C)C)NC(=O)CNC(=O)[C@H](CC(N)=O)NC(=O)[C@H](CCCNC(=N)N)NC(=O)[C@H]([C@@H](C)O)NC(=O)[C@@H]2CSSC[C@@H]3NC(=O)[C@H]([C@@H](C)O)NC(=O)CNC(=O)CNC(=O)[C@H](C(C)C)NC(=O)[C@@H]4CSSC[C@H](NC(=O)[C@H]([C@@H](C)O)NC(=O)[C@H](CSSC[C@H](NC1=O)C(=O)NCC(=O)N[C@@H](CCC(=O)O)C(=O)N[C@@H](CO)C(=O)N4)NC(=O)CNC(=O)[C@@H]1CCCN1C(=O)[C@H]([C@@H](C)O)NC(=O)[C@H](CC(N)=O)NC3=O)C(=O)N[C@@H]([C@@H](C)O)C(=O)N[C@@H](Cc1c[nH]c3ccccc13)C(=O)N1CCC[C@H]1C(=O)N[C@@H](C(C)C)C(=O)N2` (stereo in doubt; form 1), the IC50 in assay [1] is 9.57 µM.

In the case of `CC[C@H](C)[C@@H]1NC(=O)[C@@H]2CCCN2C(=O)[C@H](CC(C)C)NC(=O)CNC(=O)[C@H](CC(N)=O)NC(=O)[C@H](CCCNC(=N)N)NC(=O)[C@H]([C@@H](C)O)NC(=O)[C@@H]2CSSC[C@@H]3NC(=O)[C@H]([C@@H](C)O)NC(=O)CNC(=O)CNC(=O)[C@H](C(C)C)NC(=O)[C@@H]4CSSC[C@H](NC(=O)[C@H]([C@@H](C)O)NC(=O)[C@H](CSSC[C@H](NC1=O)C(=O)NCC(=O)N[C@@H](CCC(=O)O)C(=O)N[C@@H](CO)C(=O)N4)NC(=O)CNC(=O)[C@@H]1CCCN1C(=O)[C@H]([C@@H](C)O)NC(=O)[C@H](CC(N)=O)NC3=O)C(=O)N[C@@H]([C@@H](C)O)C(=O)N[C@@H](Cc1c[nH]c3ccccc13)C(=O)N1CCC[C@H]1C(=O)N[C@@H](C(C)C)C(=O)N2` (stereo in doubt; form 2) [listing 1 of 2 here], the IC50 in assay [1] is 8.6 µM.

With `CC[C@H](C)[C@@H]1NC(=O)[C@@H]2CCCN2C(=O)[C@H](CC(C)C)NC(=O)CNC(=O)[C@H](CC(N)=O)NC(=O)[C@H](CCCNC(=N)N)NC(=O)[C@H]([C@@H](C)O)NC(=O)[C@@H]2CSSC[C@@H]3NC(=O)[C@H]([C@@H](C)O)NC(=O)CNC(=O)CNC(=O)[C@H](C(C)C)NC(=O)[C@@H]4CSSC[C@H](NC(=O)[C@H]([C@@H](C)O)NC(=O)[C@H](CSSC[C@H](NC1=O)C(=O)NCC(=O)N[C@@H](CCC(=O)O)C(=O)N[C@@H](CO)C(=O)N4)NC(=O)CNC(=O)[C@@H]1CCCN1C(=O)[C@H]([C@@H](C)O)NC(=O)[C@H](CC(N)=O)NC3=O)C(=O)N[C@@H]([C@@H](C)O)C(=O)N[C@@H](Cc1c[nH]c3ccccc13)C(=O)N1CCC[C@H]1C(=O)N[C@@H](C(C)C)C(=O)N2` (stereo in doubt; form 2) [listing 2 of 2 here], the inhibition result in assay [2] and in assay [3] was “inactive” throughout.

These data come from ChEMBL document CHEMBL3580624 (J Nat Prod, 2015).
